Measurements taken from BindingDB's records for doi:10.1016/j.bmcl.2011.10.120 (Amgen, 2011).
pIC50: −log10 of the molar value.

Assay: Antagonist activity at CXCR3 assessed as inhibition of ITAC-mediated cell migration in presence of 100% human serum

| SMILES | pIC50 |
| --- | --- |
| C[C@H](c1nc2ncccc2c(=O)n1-c1ccc(C#N)cc1)N(CC1CCS(=O)(=O)CC1)C(=O)Cc1ccc(C(F)(F)F)c(F)c1 | 7.43 |
| C[C@H](c1nc2ncccc2c(=O)n1-c1ccc(Cl)cc1)N(CC1CCS(=O)(=O)CC1)C(=O)Cc1ccc(C(F)(F)F)c(F)c1 | 7.26 |
| C[C@H](c1nc2ncccc2c(=O)n1-c1ccc(Cl)cc1)N(CC1CCS(=O)(=O)CC1)C(=O)Cc1ccc(F)c(C(F)(F)F)c1 | 7.35 |
| C[C@H](c1nc2ccccn2c(=O)c1-c1ccc(C#N)cc1)N(CC1CCS(=O)(=O)CC1)C(=O)Cc1ccc(OC(F)(F)F)cc1 | 7.22 |
| C[C@H](c1nc2ncccc2c(=O)n1-c1ccc(C#N)cc1)N(CC1CCS(=O)(=O)CC1)C(=O)Cc1ccc(F)c(C(F)(F)F)c1 | 7.41 |

Second part, the molecule after the results:

| pIC50 | SMILES |
| --- | --- |
| 6.99 | CCS(=O)(=O)CCN(C(=O)Cc1ccc(F)c(C(F)(F)F)c1)[C@H](C)c1nc2ncccc2c(=O)n1-c1ccc(Cl)cc1 |
| 6.60 | CCS(=O)(=O)CCN(C(=O)Cc1ccc(F)c(C(F)(F)F)c1)[C@H](C)c1nc2ncccc2c(=O)n1-c1ccc(F)cc1 |
| 7.33 | CCS(=O)(=O)CCN(C(=O)Cc1ccc(C(F)(F)F)c(F)c1)[C@H](C)c1nc2ncccc2c(=O)n1-c1ccc(C#N)cc1 [(R)-N-(1-(3-(4-cyanophenyl)-4-oxo-3,4-dihydropyrido[2,3-d]pyrimidin-2-yl)ethyl)-N-(2-(ethylsulfonyl)ethyl)-2-(3-fluoro-4-(trifluoromethyl)phenyl)acetamide] |
| 6.97 | CCS(=O)(=O)CCN(C(=O)Cc1ccc(C(F)(F)F)c(F)c1)[C@H](C)c1nc2ncccc2c(=O)n1-c1ccc(Cl)cc1 |
| 7.05 | C[C@H](c1nc2ncccc2c(=O)n1-c1ccc(F)cc1)N(CC1CCS(=O)(=O)CC1)C(=O)Cc1ccc(C(F)(F)F)c(F)c1 |
| 7.14 | C[C@H](c1nc2ncccc2c(=O)n1-c1ccc(F)cc1)N(CC1CCS(=O)(=O)CC1)C(=O)Cc1ccc(F)c(C(F)(F)F)c1 |
| 6.53 | CCS(=O)(=O)CCN(C(=O)Cc1ccc(C(F)(F)F)c(F)c1)[C@H](C)c1nc2ncccc2c(=O)n1-c1ccc(F)cc1 |
